Assay results from US10294202B2, “Pyrrolidinones as herbicides” (FMC Corporation, priority 2013, dated 2019).

Legend:
pigweed = assay: Test C pre-/postemergence herbicide test; format: in vivo, Amaranthus retroflexus; conditions: Preemergence; for Plant response rating, Pigweed: 125 g ai/ha; for Plant response rating (scale of 0 to 100), Pigweed: 250 g ai/ha
Method in brief: (§1)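 Greenhouse plants scored visually against untreated controls 13–15 days after treatment, 0 = no effect, 100 = complete control. Test chemicals in a non-phytotoxic solvent with surfactant were applied either to soil (loam/sand) at planting or to foliage of 1- to 4-leaf plants, 2–18 cm tall.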

ragweed = assay: Test C pre-/postemergence herbicide test; format: in vivo, Ambrosia elatior; conditions: Preemergence; for Plant response rating, Ragweed: 125 g ai/ha; for Plant response rating (scale of 0 to 100), Ragweed: 250 g ai/ha
Method in brief: as §1

morningglory = assay: Test C pre-/postemergence herbicide test; format: in vivo, Ipomoea coccinea; conditions: Preemergence; for Plant response rating, Morningglory: 125 g ai/ha; for Plant response rating (scale of 0 to 100), Morningglory: 250 g ai/ha
From the text: (§2) Seeds of plant species selected from blackgrass (Alopecurus myosuroides), ryegrass, Italian (Italian ryegrass, Lolium multiflorum), wheat (winter wheat, Triticum aestivum), galium (catchweed bedstraw, Galium aparine), corn (Zea mays), crabgrass, large (large crabgrass, Digitaria sanguinalis), foxtail, giant (giant foxtail, Setaria faberii), johnsongrass (Sorghum halepense), lambsquarters (Chenopodium album), morningglory (Ipomoea coccinea), nutsedge, yellow (yellow nutsedge, Cyperus esculentus), pigweed (Amaranthus retroflexus), ragweed (common ragweed, Ambrosia elatior), soybean (Glycine max), barnyardgrass (Echinochloa crus-galli), oilseed rape (Brassica napus), waterhemp (common waterhemp, Amaranthus rudis), kochia (Kochia scoparia), oat, wild (wild oat, Avena fatua), surinam grass (Brachiaria decumbens), foxtail, green (green foxtail, Setaria viridis), goosegrass (Eleusine indica), bromegrass, downy (downy bromegrass, Bromus tectorum), nightshade (eastern black nightshade, Solanum ptycanthum), cocklebur (common cocklebur, Xanthium strumarium), cupgrass, woolly (woolly cupgrass, Eriochloa villosa), bermudagrass (Cynodon dactylon), sunflower, (common oilseed sunflower, Helianthus annuus), Russian thistle (Salsola kali) and velvetleaf (Abutilon theophrasti) were planted into a blend of loam soil and sand and treated preemergence with test chemicals formulated in a non-phytotoxic solvent mixture which included a surfactant. At the same time, plants selected from these crop and weed species and also barley (winter barley, Hordeum vulgare), […]), chickweed (common chickweed, Stellaria media), deadnettle (henbit deadnettle, Lamium amplexicaule), and canarygrass (littleseed canarygrass, Phalaris minor) were planted in pots containing Redi-Earth® planting medium (Scotts Company, 14111 Scottslawn Road, Marysville, Ohio 43041) comprising spaghnum peat moss, vermiculite, wetting agent and starter nutrients and treated with postemergence applications of test chemicals formulated in the same manner. Plants ranged in height from 2 to 18 cm (1- to 4-leaf stage) for postemergence treatments. Treated plants and controls were maintained in a greenhouse for 13 to 15 days, after which time all species were compared to controls and visually evaluated. Plant response ratings, summarized in Table C, are based on a scale of 0 to 100 where 0 is no effect and 100 is complete control. A dash (-) response means no test result.

wheat (winter wheat) = assay: Test C pre-/postemergence herbicide test; format: in vivo, Triticum aestivum; conditions: Preemergence; for Plant response rating (scale of 0 to 100), Wheat: 250 g ai/ha
Method in brief: as §1

sedge, umbrella = assay: Test B flooded paddy test; format: in vivo, Cyperus difformis; conditions: 1000 g ai/ha, Flood; scale of 0 to 100 where 0 is no effect and 100 is complete control
Method in brief: (§3)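 2-leaf plants; flood 3 cm over soil; compound into paddy water; depth held. Greenhouse 13–15 d. Visual rating vs controls, 0 (no effect) to 100 (complete control); dash = not tested.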

ducksalad = assay: Test B flooded paddy test; format: in vivo, Heteranthera limosa; conditions: 1000 g ai/ha, Flood; scale of 0 to 100 where 0 is no effect and 100 is complete control
Method in brief: as §3

corn = assay: Test C pre-/postemergence herbicide test; format: in vivo, Zea mays; conditions: Preemergence; for Plant response rating, Corn: 125 g ai/ha; for Plant response rating (scale of 0 to 100), Corn: 250 g ai/ha
From the text: as §2

lambsquarters = assay: Test C pre-/postemergence herbicide test; format: in vivo, Chenopodium album; conditions: Preemergence; for Plant response rating, Lambsquarters: 125 g ai/ha; for Plant response rating (scale of 0 to 100), Lambsquarters: 250 g ai/ha
Method in brief: as §1

galium = assay: Test C pre-/postemergence herbicide test; format: in vivo, Galium aparine; conditions: Preemergence; for Plant response rating, Galium: 125 g ai/ha; for Plant response rating (scale of 0 to 100), Galium: 250 g ai/ha
Method in brief: as §1

soybean = assay: Test C pre-/postemergence herbicide test; format: in vivo, Glycine max; conditions: Preemergence; for Plant response rating, Soybean: 125 g ai/ha; for Plant response rating (scale of 0 to 100), Soybean: 250 g ai/ha
From the text: as §2

ryegrass, Italian = assay: Test C pre-/postemergence herbicide test; format: in vivo, Lolium multiflorum; conditions: Preemergence; for Plant response rating, Ryegrass, Italian: 125 g ai/ha; for Plant response rating (scale of 0 to 100), Ryegrass, Italian: 250 g ai/ha
From the text: as §2

barnyardgrass [1] = assay: Test C pre-/postemergence herbicide test; format: in vivo, Echinochloa crus-galli; conditions: Preemergence; for Plant response rating (scale of 0 to 100; 0 is no effect, 100 is complete control), Barnyardgrass: 250 g ai/ha
From the text: as §2

barnyardgrass [2] = assay: Test B flooded paddy test; format: in vivo, Echinochloa crus-galli; conditions: 1000 g ai/ha, Flood; scale of 0 to 100 where 0 is no effect and 100 is complete control
Method in brief: as §3

waterhemp = assay: Test C pre-/postemergence herbicide test; format: in vivo, Amaranthus rudis; conditions: Preemergence; for Plant response rating, Waterhemp: 125 g ai/ha; for Plant response rating (scale of 0 to 100), Waterhemp: 250 g ai/ha
From the text: as §2

[3] = 31 g ai/ha, scale 0 to 100, 0 is no effect and 100 is complete control
[4] = 62 g ai/ha, scale 0 to 100 (0 no effect, 100 complete control)
[5] = scale 0 to 100 (0 no effect, 100 complete control)
[6] = 125 g ai/ha, scale 0 to 100 (0 no effect, 100 complete control)

O=C1NCC(c2ccc(C(F)(F)F)c(F)c2)C1C(=O)Nc1ccccc1F (racemic) [Compound 246]
95: Plant response rating, Ducksalad (ducksalad)
30: Pigweed plant response rating (pigweed; [3]) | Plant response rating (scale of 0 to 100), Wheat (wheat (winter wheat))
90: Plant response rating (scale of 0 to 100), Lambsquarters (lambsquarters) | Galium plant response rating (galium; [4]) | Plant response rating, Galium (galium; [5]) | Plant response rating (scale of 0 to 100), Galium (galium) | Plant response rating (scale of 0 to 100; 0 is no effect, 100 is complete control), Barnyardgrass (barnyardgrass [1]) | Plant response rating, Waterhemp (waterhemp; [5]) | Plant response rating (scale of 0 to 100), Waterhemp (waterhemp)
20: Plant response rating, Sedge, Umbrella (sedge, umbrella) | Barnyardgrass plant response rating (barnyardgrass [1]; [3])
98: Waterhemp plant response rating (waterhemp; [4])
60: Plant response rating, Barnyardgrass (barnyardgrass [2])
65: Lambsquarters plant response rating (lambsquarters; [3]) | Lambsquarters plant response rating (lambsquarters; [4])
0: Ragweed plant response rating (ragweed; [3]) | Ragweed plant response rating (ragweed; [4]) | Plant response rating, Ragweed (ragweed; [5]) | Wheat plant response rating (wheat (winter wheat); [3]) | Wheat plant response rating (wheat (winter wheat); [4]) | Corn plant response rating (corn; [3]) | Corn plant response rating (corn; [4]) | Plant response rating (scale of 0 to 100), Corn (corn) | Soybean plant response rating (soybean; [3]) | Soybean plant response rating (soybean; [4]) | Plant response rating, Soybean (soybean; [5]) | Ryegrass, Italian plant response rating (ryegrass, Italian; [3]) | Ryegrass, Italian plant response rating (ryegrass, Italian; [4])
10: Plant response rating, Morningglory (morningglory; [5]) | Plant response rating, Wheat (wheat (winter wheat); [6]) | Galium plant response rating (galium; [3]) | Plant response rating (scale of 0 to 100), Soybean (soybean) | Plant response rating, Ryegrass, Italian (ryegrass, Italian; [5]) | Plant response rating (scale of 0 to 100), Ryegrass, Italian (ryegrass, Italian)
75: Pigweed plant response rating (pigweed; [4]) | Plant response rating, Pigweed (pigweed; [5]) | Plant response rating, Barnyardgrass (barnyardgrass [1]; 62 g ai/ha, scale 0 to 100) | Plant response rating, Barnyardgrass (barnyardgrass [1]; [6])
100: Plant response rating (scale of 0 to 100), Pigweed (pigweed) | Waterhemp plant response rating (waterhemp; [3])
40: Plant response rating (scale of 0 to 100), Ragweed (ragweed)
5: Morningglory plant response rating (morningglory; [3]) | Morningglory plant response rating (morningglory; [4]) | Plant response rating (scale of 0 to 100), Morningglory (morningglory) | Plant response rating, Corn (corn; [5])
80: Plant response rating, Lambsquarters (lambsquarters; [5])

O=C1NCC(c2ccc(C(F)(F)F)c(F)c2)C1C(=O)Nc1cccc(F)c1F (racemic) [Compound 247]
40: Plant response rating, Ryegrass, Italian (ryegrass, Italian; [5])
55: Pigweed plant response rating (pigweed; [4])
100: Ragweed plant response rating (ragweed; [3]) | Waterhemp plant response rating (waterhemp; [4]) | Plant response rating, Waterhemp (waterhemp; [5])
98: Plant response rating (scale of 0 to 100), Ragweed (ragweed)
20: Plant response rating (scale of 0 to 100), Morningglory (morningglory)
60: Plant response rating, Corn (corn; [5]) | Plant response rating (scale of 0 to 100), Corn (corn)
50: Plant response rating (scale of 0 to 100), Ryegrass, Italian (ryegrass, Italian)
35: Ryegrass, Italian plant response rating (ryegrass, Italian; [4])
15: Corn plant response rating (corn; [4]) | Barnyardgrass plant response rating (barnyardgrass [1]; [3])
70: Plant response rating, Ragweed (ragweed; [5]) | Plant response rating, Lambsquarters (lambsquarters; [5]) | Waterhemp plant response rating (waterhemp; [3])
5: Plant response rating, Morningglory (morningglory; [5]) | Corn plant response rating (corn; [3])
85: Plant response rating, Pigweed (pigweed; [5]) | Ragweed plant response rating (ragweed; [4]) | Barnyardgrass plant response rating (barnyardgrass [1]; [4]) | Plant response rating, Barnyardgrass (barnyardgrass [2]) | Plant response rating (scale of 0 to 100), Waterhemp (waterhemp)
0: Pigweed plant response rating (pigweed; [3]) | Morningglory plant response rating (morningglory; [3]) | Morningglory plant response rating (morningglory; [4]) | Wheat plant response rating (wheat (winter wheat); [3]) | Wheat plant response rating (wheat (winter wheat); [4]) | Plant response rating (scale of 0 to 100), Wheat (wheat (winter wheat)) | Plant response rating, Sedge, Umbrella (sedge, umbrella) | Lambsquarters plant response rating (lambsquarters; [3]) | Soybean plant response rating (soybean; [3]) | Soybean plant response rating (soybean; [4]) | Plant response rating, Soybean (soybean; [5]) | Plant response rating (scale of 0 to 100), Soybean (soybean) | Ryegrass, Italian plant response rating (ryegrass, Italian; [3])
80: Plant response rating (scale of 0 to 100), Lambsquarters (lambsquarters)
90: Plant response rating (scale of 0 to 100), Pigweed (pigweed) | Lambsquarters plant response rating (lambsquarters; [4]) | Galium plant response rating (galium; [3]) | Galium plant response rating (galium; [4]) | Plant response rating, Galium (galium; [5]) | Plant response rating (scale of 0 to 100), Galium (galium) | Plant response rating, Barnyardgrass (barnyardgrass [1]; [6]) | Plant response rating (scale of 0 to 100; 0 is no effect, 100 is complete control), Barnyardgrass (barnyardgrass [1])
95: Plant response rating, Ducksalad (ducksalad)
